The values below come from patent US10640495B2, “Heterocycle derivatives having TrkA inhibitory activity” (Shionogi & Co., Ltd., priority 2015, dated 2020).

By IC50 is commonly meant the concentration at which inhibition is half-maximal.

This assay concerns the target human TrkA (Homo sapiens (Human), UniProt P04629). Description: Human TrkA inhibition assay (Test Example 2). Type of assay: biochemical. The method, boiled down:
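Recombinant TrkA (1 nmol/L) was preincubated 15 min at room temperature with compound in HEPES/MgCl2/DTT buffer, then reacted with FL-peptide 27 (1.5 μmol/L) and ATP (500 μmol/L) for 120 min at 37 °C. After EDTA stop, substrate phosphorylation was read by microfluidic mobility shift. IC50 came from logistic regression over 3-fold dilution series.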

The mark [1] stands for this setting: Table 154, human TrkA inhibition, read-out: IC50.
Where [2] appears, read: human TrkA 1 nmol/L, ATP 500 μmol/L, 120 min at 37° C., read-out: IC50 values (TrkA phosphorylation inhibition).

Where two headings read alike, the source gives them in different places. A value given as a limit tells only on which side of the number the result lay.

Chain of human TrkA (P04629 440-796): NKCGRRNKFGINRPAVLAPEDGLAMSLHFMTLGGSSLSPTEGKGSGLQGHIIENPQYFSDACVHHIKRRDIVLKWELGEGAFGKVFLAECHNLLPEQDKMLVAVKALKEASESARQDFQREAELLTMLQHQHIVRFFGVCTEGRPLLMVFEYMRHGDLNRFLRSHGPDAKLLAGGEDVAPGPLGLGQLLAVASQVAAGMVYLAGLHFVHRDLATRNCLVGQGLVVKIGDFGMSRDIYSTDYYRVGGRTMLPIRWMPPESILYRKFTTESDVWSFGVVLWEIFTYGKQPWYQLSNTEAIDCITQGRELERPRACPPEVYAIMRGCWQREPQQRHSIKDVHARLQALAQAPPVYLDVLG

As to `COCC[C@@H]1C[C@@H](NC(=O)Nc2c(C)c(-c3cnc4c(c3)ncn4C)nn2-c2ccccc2)[C@H](c2ccnc(F)c2)O1` [Compound I-276], the IC50 under setting [1] was below 100 nM.

Take `COCCN1C[C@@H](NC(=O)Nc2c(C)c(-c3cc(-c4cn(Cc5ccc(OC)cc5)nn4)c(=O)n(C)c3)nn2-c2ccccc2)[C@H](c2ccc(F)c(F)c2)O1` [Compound I-277]: the IC50 under setting [1] was below 100 nM.

On to `COCC[C@@H]1C[C@@H](NC(=O)Nc2c(C)c(-c3cc(C)c(=O)n(C)c3)nn2-c2ccccc2)[C@H](c2ccnc(F)c2)O1` [Compound I-288], for which the IC50 under setting [1] was below 100 nM.

Consider `COCC[C@@H]1C[C@@H](NC(=O)Nc2c(C)c(-c3cnc(N(C)C(=O)OC(C)(C)C)nc3)nn2-c2ccccc2)[C@H](c2ccnc(F)c2)O1` [Compound I-289], for which, under setting [1], the IC50 was below 100 nM.

For `COCC[C@@H]1C[C@@H](NC(=O)Nc2c(C)c(-c3cnc(N(C(=O)OC(C)(C)C)C4CC4)nc3)nn2-c2ccccc2)[C@H](c2ccnc(F)c2)O1` [Compound I-290], under setting [1], the IC50 was below 100 nM.

`CNc1ncc(-c2nn(-c3ccccc3)c(NC(=O)N[C@@H]3C[C@@H](CCOC)O[C@H]3c3ccnc(F)c3)c2C)cn1` [Compound I-292]: the IC50 under setting [1] was below 100 nM.

In the case of `COCC[C@@H]1C[C@@H](NC(=O)Nc2c(C)c(-c3cnc(NC4CC4)nc3)nn2-c2ccccc2)[C@H](c2ccnc(F)c2)O1` [Compound I-293], the IC50 under setting [1] was below 100 nM.

For the molecule `COCCC1C[C@@H](NC(=O)Nc2c(C)c(-c3cnc(COC(=O)C(C)(C)C)nc3)nn2-c2ccccc2)[C@H](c2ccccc2)O1` (stereo partly drawn) [Compound I-294], under setting [1], the IC50 was below 100 nM.

In the case of `COCCC1C[C@@H](NC(=O)Nc2c(C)c(OCC(C)(C)O)nn2-c2ccccc2)[C@H](c2ccccc2)O1` (stereo partly drawn) [Compound I-295], under setting [1], the IC50 was 100 to 1000 nM.

For the molecule `COCCC1C[C@@H](NC(=O)Nc2c(C)c(-c3cnc(CO)nc3)nn2-c2ccccc2)[C@H](c2ccccc2)O1` (stereo partly drawn) [Compound I-296], the half-inhibitory concentration (IC50) under setting [1] is below 100 nM.

Turning to `COCCN1C[C@@H](NC(=O)Nc2c(C)c(-c3cnc4c(c3)c(N=S(C)(C)=O)nn4C)nn2-c2ccccc2)[C@H](c2ccc(F)c(F)c2)O1` [Compound I-298], the IC50 under setting [2] stood at 0.6 nM.

Regarding `COCCN1C[C@@H](NC(=O)Nc2c(C)c(-c3ccc4nc(C(N)=O)cn4c3)nn2-c2ccccc2)[C@H](c2ccc(F)c(F)c2)O1` [Compound I-310], the IC50 under setting [1] was below 100 nM.

For the molecule `COCCN1C[C@@H](NC(=O)Nc2c(C)c(-c3cnc(C(N)=O)c(F)c3)nn2-c2ccccc2)[C@H](c2ccc(F)c(F)c2)O1` [Compound I-312], under setting [1], the IC50 was below 100 nM.

In the case of `CNC(=O)c1ncc(-c2nn(-c3ccccc3)c(NC(=O)N[C@@H]3CN(CCOC)O[C@H]3c3ccc(F)c(F)c3)c2C)cc1F` [Compound I-314], the IC50 under setting [1] was below 100 nM.

In the case of `CNC(=O)c1ncc(-c2nn(-c3ccccc3)c(NC(=O)N[C@@H]3CN(CCOC)O[C@H]3c3ccc(F)c(F)c3)c2C)cc1NC` [Compound I-315], under setting [2], the IC50 was 0.76 nM.

On to `CNC(=O)c1cc(-c2nn(-c3ccccc3)c(NC(=O)N[C@@H]3C[C@@H](CCOC)O[C@H]3c3ccnc(F)c3)c2C)cnc1OC` [Compound I-319], for which, under setting [2], the half-inhibitory concentration (IC50) was 1.2 nM.

Regarding `COCCN1C[C@@H](NC(=O)Nc2c(C)c(-c3cnc(OC)nc3)nn2-c2ccccc2)[C@H](c2ccnc(F)c2)O1` [Compound I-322], the IC50 under setting [2] amounted to 2.4 nM.

Turning to `CNC(=O)c1ncc(-c2nn(-c3ccccc3)c(NC(=O)N[C@@H]3CN(CCOC)O[C@H]3c3ccnc(F)c3)c2C)cc1C` [Compound I-325], the half-maximal inhibitory concentration (IC50) under setting [2] amounted to 2.5 nM.

As to `COCC[C@@H]1C[C@@H](NC(=O)Nc2c(C)c(-c3cnc4c(c3)CC(=O)N4C)nn2-c2ccccc2)[C@H](c2ccnc(F)c2)O1` [Compound I-329], the IC50 under setting [2] was determined as 1.7 nM.

In the case of `COCC[C@@H]1C[C@@H](NC(=O)Nc2c(C)c(-c3cnc4c(c3)c(=O)n(C)n4C)nn2-c2ccccc2)[C@H](c2ccnc(F)c2)O1` [Compound I-330], the IC50 (Table 155, human TrkA inhibition, read-out: IC50) is below 100 nM.

Consider `COCCN1C[C@@H](NC(=O)Nc2c(C)c(-c3ccc(CN=S(C)(C)=O)cc3)nn2-c2ccccc2)[C@H](c2ccc(F)c(F)c2)O1` [Compound I-332], for which, under setting [2], the IC50 was found to be 1.2 nM.
